For the test, the system named is murine neural precursor cells (neurosphere cultures). The test can be described thus: HTS of LOPAC library against secondary neurosphere cultures, MTT proliferation assay at 3 μM, day 7 (z score, P value). The test is classed as cell-based, mouse.
[1] abbreviates: LOPAC library screen, 3 μM, MTT, neurosphere cultures.
The mark [2] stands for this setting: LOPAC primary screen, neurosphere MTT proliferation, 3 μM, day 7.
Where [3] appears, read: yes/no: significantly inhibited neurosphere proliferation in primary screen.
Setting [4] is: LOPAC screen, neurosphere MTT proliferation, 3 μM, day 7.
[5] abbreviates: yes/no: significantly inhibited neurosphere proliferation (P<0.01) in primary screen.
[6] abbreviates: LOPAC library screen, 3 μM, MTT, secondary neurosphere cultures, day 7.
The mark [7] stands for this setting: primary LOPAC screen, 3 μM, MTT, neurosphere proliferation.
Where [8] appears, read: yes/no: significantly inhibited neurosphere proliferation in the primary screen.
Where [9] appears, read: LOPAC library screen at 3 μM, secondary neurosphere cultures, MTT.
Setting [10] is: yes = significantly inhibited neurosphere proliferation (P<0.01) in the primary screen.
[11] abbreviates: yes/no: significantly inhibited neurosphere proliferation (P<0.01) in the primary screen.

Where a name gives a salt, the structure may show the parent alone. Read-outs that look alike come from different tables or passages of the source.

On to `CCCn1cnc2c1c(=O)n(CCCCC(C)=O)c(=O)n2C` [Propentofylline], for which the “Z Score” value under setting [1] came out at 0.1563. For the same compound, the Z score under setting [2] stood at 0.156. Besides, the Activity result under setting [3] is on record as “no”.

For `NCC(CC(=O)O)c1ccc(Cl)cc1` (racemic) [(±)-Baclofen], the Z score under setting [4] is reported as −1.069. The Activity entry under setting [5] was “no”.

With `CC(=O)c1ccc(S(=O)(=O)NC(=O)NC2CCCCC2)cc1` [Acetohexamide], the “Z Score” value under setting [6] is −2.24. This compound showed a Z score under setting [7] of −2.240. The Activity entry under setting [8] was “no”.

Turning to `C[C@@H]1O[C@@H](O[C@H]2C[C@@H](O)[C@]3(CO)[C@H]4[C@H](O)C[C@]5(C)[C@@H](C6=CC(=O)OC6)CC[C@]5(O)[C@@H]4CC[C@]3(O)C2)[C@H](O)[C@H](O)[C@H]1O` [Ouabain], the “Z Score” value under setting [6] is recorded as −1.568. Moreover, under setting [2], the Z score was −1.568. Moreover, under setting [3], the Activity entry is “no”.

On to `CC(C)NC(C)Cc1ccc(I)cc1` (stereo not shown) [Iofetamine hydrochloride], for which the “Z Score” value is −0.7588. This compound also displayed a Z score under setting [2] of −0.759.

For `O=C1NC(=O)C(c2ccccc2)(c2ccccc2)N1` [Phenytoin sodium], the “Z Score” value under setting [9] is listed as −0.2166. Further, under setting [4], the Z score is recorded as −0.217. The Activity entry under setting [5] is given as “no”.

Regarding `CC(CCc1ccccc1)NC(C)C(O)c1ccc(O)cc1` (stereo not shown) [Nylidrin hydrochloride], the “Z Score” value under setting [6] was −1.375. For the same compound, the Z score under setting [2] is recorded as −1.375. The Activity entry under setting [10] is “no”.

`NCCC(=O)NCCc1c[nH]cn1` [Carcinine dihydrochloride]: under “168 h, 3 µM”, the “Z Score” value is given as −1.023 and the Z score is reported as −1.023. Moreover, the Activity result under setting [8] is on record as “no”.

On to `Cl.O=C(OC1CCN(CCCl)CC1)C(c1ccccc1)c1ccccc1` [4-Diphenylacetoxy-N-(2-chloroethyl)piperidine hydrochloride], for which the “Z Score” value was 0.8645. The same compound came in with a Z score under setting [2] of 0.864. Further, the Activity result under setting [5] is on record as “no”.

Consider `CC(=O)SCC[N+](C)(C)C.[Cl-]` [Acetylthiocholine chloride], for which, under setting [7], the Z score is on record as 0.004. Also, the Activity entry under setting [8] was “no”.

On to `NC(=O)c1ncn([C@@H]2O[C@H](CO)[C@@H](O)[C@H]2O)c1O` [Mizoribine], for which the “Z Score” value (LOPAC library screen at 3 μM, MTT, secondary neurosphere cultures, screened in singlets) was 1.642.

`COC[C@H]1OC(=O)c2coc3c2[C@@]1(C)C1=C(C3=O)[C@@H]2CCC(=O)[C@@]2(C)C[C@H]1OC(C)=O` [Wortmannin from Penicillium funiculosum]: the “Z Score” value came out at 0.4079. Moreover, the Z score under setting [7] was 0.408. Under setting [8], the Activity result was “no”.

Take `COc1ccc(CN(CCN(C)C)c2ccccn2)cc1` [Pyrilamine maleate]: the “Z Score” value under setting [1] came out at 0.9893. The Z score under setting [2] came out at 0.989. The Activity result under setting [10] is reported as “no”.

On to `CN(C)C(=O)C(CCN1CCC(O)(c2ccc(Cl)cc2)CC1)(c1ccccc1)c1ccccc1` [Loperamide hydrochloride], for which the “Z Score” value is −0.4976. The Z score under setting [2] is listed as −0.498. Besides, the Activity entry under setting [5] is “no”.

`CC(CCc1ccc(O)cc1)NCCc1ccc(O)c(O)c1` (stereo not shown) [Dobutamine hydrochloride]: the “Z Score” value under setting [1] worked out at 0.3185. Under setting [4], this compound yielded a Z score of 0.319. The Activity entry under setting [5] is given as “no”.

As to `N=C(N)SCCc1cnc[nH]1` [Imetit dihydrobromide], the “Z Score” value is −0.2452 and the Z score is −0.245.

For `COc1cc2nc(N3CCN(C(=O)C4COc5ccccc5O4)CC3)nc(N)c2cc1OC` (stereo not shown) [Doxazosin mesylate], the “Z Score” value under setting [6] is −1.861. Under setting [4], this compound gave a Z score of −1.861. Also, under setting [5], the Activity entry is reported as “no”.

On to `OC(CCN1CCCCC1)(c1ccccc1)C1CCCCC1` (stereo not shown) [Trihexyphenidyl hydrochloride], for which the “Z Score” value under setting [1] worked out at 1.215.

Take `CN1CCN(CC(=O)N2c3ccccc3C(=O)Nc3cccnc32)CC1.Cl.Cl` [Pireuzepine dihydrochloride]: the “Z Score” value is −0.545.

For `C[N+]1(C)[C@@H]2CC[C@H]1C[C@@H](OC(=O)C(CO)c1ccccc1)C2` (stereo partly shown) [Atropine methyl nitrate], under setting [1], the “Z Score” value amounted to 1.292. The same compound registered a Z score under setting [2] of 1.292. For the same compound, the Activity result under setting [3] is given as “no”.

As for `CCCCCCCCCCCCCCCCCCNC(=O)OCC(COP(=O)([O-])OCC[n+]1ccsc1)OC` (stereo not shown) [CV-3988], the “Z Score” value is −0.4371. The Z score under setting [2] is reported as −0.437. Moreover, the Activity result under setting [3] is given as “no”.

`CC(NC(C)(C)C)C(=O)c1cccc(Cl)c1` (stereo not shown) [Bupropion hydrochloride]: the “Z Score” value under setting [1] stood at 0.2671. The compound further returned a Z score under setting [4] of 0.267. Also, the Activity entry under setting [5] is “no”.

For the compound `O=S(=O)(c1cccc2cnccc12)N1CCNCC1` [HA-100], the “Z Score” value is −0.6892. The compound also showed a Z score under setting [2] of −0.689. The Activity result under setting [11] was “no”.

Turning to `Cn1c(=O)c2c(nc(C=Cc3cccc(Cl)c3)n2C)n(C)c1=O` [8-(3-Chlorostyryl)caffeine], under “168 h, 3 µM”, the “Z Score” value is given as −1.214 and the Z score is reported as −1.214. Moreover, the Activity entry under setting [5] was “no”.

(S)-Propranolol hydrochloride: the “Z Score” value under setting [9] is listed as −0.5346. The Z score under setting [2] is reported as −0.535. Also, the Activity entry under setting [3] is reported as “no”.

With `CN1CCN(CCCN2c3ccccc3Sc3ccc(C(F)(F)F)cc32)CC1` [Trifluoperazine dihydrochloride], for the setting “168 h, 3 µM”, the “Z Score” value is given as −9.305 and the Z score was −9.305. Moreover, under setting [11], the Activity result is reported as “yes”.

Turning to `COc1cccc2c1[C@@H]1CN(CCCCn3c(=O)[nH]c4c(sc5ncc(-c6ccccc6)nc54)c3=O)C[C@@H]1CO2` [Fiduxosin hydrochloride], under setting [1], the “Z Score” value is given as 0.2005. Besides, under setting [2], the Z score was 0.200. Moreover, the Activity result under setting [5] was “no”.

For `Cc1nc2c([nH]1)c(=O)n(C)c(=O)n2Cc1ccco1` [Furafylline], the “Z Score” value under setting [1] is reported as 1.025. The compound further had a Z score under setting [2] of 1.025. The Activity entry under setting [5] is recorded as “no”.

With `Cc1ccc(S(=O)(=O)NC(=O)NN2CCCCCC2)cc1` [Tolazamide], the “Z Score” value under setting [1] is on record as 1.431. The same compound gave a Z score under setting [7] of 1.431. Further, the Activity result under setting [8] was “no”.

Turning to `O=C(O)[C@@H]1[C@H](C(=O)O)[C@H]2CC[C@@H]1O2` [Endothall], the “Z Score” value is on record as −1.143. The same compound displayed a Z score under setting [2] of −1.143. Also, the Activity entry under setting [5] is “no”.

With `O=S(=O)(O)C1CCNCC1` [Piperidine-4-sulphonic acid], under “168 h, 3 µM”, the “Z Score” value was −0.4238 and the Z score is recorded as −0.424. For the same compound, under setting [3], the Activity result is given as “no”.

Consider `Brc1c(NC2=NCCN2)ccc2nccnc12` [UK 14,304], for which the Activity entry is listed as “no”, the “Z Score” value is −0.2103 and the Z score is −0.210.

`CNCCCN1c2ccccc2CCc2ccccc21` [Desipramine hydrochloride]: the “Z Score” value under setting [1] amounted to 0.1226. Under setting [4], this compound gave a Z score of 0.123. For the same compound, the Activity entry under setting [5] is reported as “no”.

As to `O=C(O)C1=CC(=C(c2ccc(O)c(C(=O)O)c2)c2ccc(O)c(C(=O)O)c2)C=CC1=O` [Aurintricarboxylic acid], for the setting “168 h, 3 µM”, the “Z Score” value was determined as 0.5709 and the Z score is 0.571.

Source of the values: US8058243B2, “Method for treating a brain cancer with ifenprodil” (HSC Research and Development Limited Partnership, priority 2006, dated 2011).
